Reference: ChEMBL document CHEMBL1127817, “Antitumor agents. 150. 2',3',4',5',5,6,7-substituted 2-phenyl-4-quinolones and related compounds: their synthesis, cytotoxicity, and inhibition of tubulin polymerization” (J Med Chem, 1994)

Legend:
[1] = tested on: SF-268; experiment: In vitro inhibition of tumor cell growth of SF-268, CNS tumor cell line; format: functional; conditions: Homo sapiens
[2] = tested on: KM-20L2; experiment: In vitro inhibition of tumor cell growth of KM20L2, colon cancer cell line; format: functional; conditions: Homo sapiens
[3] = tested on: HCT-116; experiment: In vitro inhibition of tumor cell growth of HCT116, colon cancer cell line; format: functional; conditions: Homo sapiens
[4] = tested on: NCI-H226; experiment: In vitro inhibition of tumor cell growth of NCI-H226, a non small-cell lung cancer cell line; format: functional; conditions: Homo sapiens
[5] = tested on: RXF 393; experiment: In vitro inhibition of tumor cell growth of RXF-393, renal cancer cell line; format: functional; conditions: Homo sapiens
[6] = tested on: SK-MEL-5; experiment: In vitro inhibition of tumor cell growth of SK-Mel-5, melanoma cell line; format: functional; conditions: Homo sapiens
[7] = tested on: DMS-114; experiment: In vitro inhibition of tumor cell growth of DMS114, a small-cell lung cancer cell line; conditions: Homo sapiens
[8] = tested on: OVCAR-3; experiment: In vitro inhibition of tumor cell growth of OVCAR-3, ovarian cancer cell line; format: functional; conditions: Homo sapiens
[9] = molecular target: Tubulin beta chain (Bos taurus, UniProt Q6B856); experiment: Inhibition of tubulin polymerization; format: functional
Sequence of Tubulin beta chain (Q6B856 whole entry): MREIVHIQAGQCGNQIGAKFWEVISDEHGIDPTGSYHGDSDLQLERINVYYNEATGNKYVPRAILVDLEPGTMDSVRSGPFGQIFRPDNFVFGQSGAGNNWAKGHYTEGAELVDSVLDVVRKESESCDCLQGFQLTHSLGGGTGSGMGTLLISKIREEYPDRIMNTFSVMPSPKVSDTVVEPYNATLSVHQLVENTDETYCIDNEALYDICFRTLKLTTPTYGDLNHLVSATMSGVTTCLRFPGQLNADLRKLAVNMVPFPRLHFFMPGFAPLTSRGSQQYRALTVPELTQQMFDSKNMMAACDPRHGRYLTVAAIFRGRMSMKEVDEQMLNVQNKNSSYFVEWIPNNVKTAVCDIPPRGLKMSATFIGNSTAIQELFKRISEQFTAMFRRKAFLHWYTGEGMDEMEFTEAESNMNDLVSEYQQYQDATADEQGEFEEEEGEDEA

[10] = tested on: SF-295; experiment: In vitro inhibition of tumor cell growth of SF-295, CNS tumor cell line; format: functional; conditions: Homo sapiens

| Compound | GI50 [3] [µM] | GI50 [4] [µM] | GI50 [6] [µM] | GI50 [7] [µM] | GI50 [8] [µM] | IC50 [9] [µM] | GI50 [1] [µM] | GI50 [2] [µM] | GI50 [5] [µM] | GI50 [10] [µM] |
| --- | --- | --- | --- | --- | --- | --- | --- | --- | --- | --- |
| COc1ccc2nc(-c3ccccn3)cc(O)c2c1 | 33.9 | 36.3 | 28.2 | 22.4 | > 100 | > 40 | 24 | 35.5 | 2.51 | 51.3 |
| CN(C)c1ccc(-c2cc(O)c3ccccc3n2)cc1 | > 100 | > 100 | – | > 100 | > 100 | > 40 | > 100 | > 100 | > 100 | > 100 |
| Oc1cc(-c2ccccn2)nc2ccc(Cl)cc12 | 26.3 | 46.8 | 26.3 | 13.8 | 63.1 | > 40 | 23.4 | 39.8 | 33.9 | 51.3 |
| Oc1c2c(nc3cc4c(cc13)OCO4)-c1ccccc1CC2 | > 100 | > 100 | > 100 | > 100 | > 100 | > 40 | > 100 | > 100 | > 100 | > 100 |
| COc1ccc(-c2cc(O)c3cc(OC)ccc3n2)cc1 | > 100 | > 100 | > 100 | > 100 | > 100 | > 40 | 36.3 | > 100 | > 100 | – |
| COc1ccc(CCc2cc(OC)c(OC)c(OC)c2)cc1O | – | – | – | – | – | 0.63 | – | – | – | – |
| COc1ccc2nc(-c3ccc(O)cc3)cc(O)c2c1 | 0.209 | 0.209 | 0.288 | 0.178 | 0.302 | 5.6 | 0.417 | 0.407 | 0.17 | 0.245 |
| Oc1cc(-c2ccc(Oc3ccccc3)cc2)nc2cc3c(cc12)OCO3 | > 100 | – | > 100 | > 100 | > 100 | > 40 | > 100 | > 100 | > 100 | > 100 |
| COc1ccc(-c2cc(O)c3ccc(F)cc3n2)cc1 | > 100 | > 100 | > 100 | > 100 | > 100 | > 40 | > 100 | > 100 | > 100 | > 100 |
| COc1cc(-c2cc(O)c3ccccc3n2)cc(OC)c1OC | > 100 | > 100 | – | > 100 | > 100 | > 40 | > 100 | > 100 | > 100 | > 100 |
| COc1ccc2c(c1)CCc1c-2nc2cc3c(cc2c1O)OCO3 | > 100 | > 100 | > 100 | – | > 100 | – | > 100 | > 100 | > 100 | > 100 |
| Oc1cc(/C=C/c2ccccc2)nc2cc3c(cc12)OCO3 | 2.82 | 2.88 | 2.19 | – | 2.24 | 2.3 | 7.08 | – | 4.27 | 3.02 |
| COc1cccc(-c2cc(O)c3ccccc3n2)c1 | 5.75 | 2.82 | – | 5.62 | 5.5 | 1.4 | 6.76 | 8.51 | 6.61 | 2.29 |
| Oc1cc(-c2ccccn2)nc2cccc(F)c12 | – | > 100 | 61.7 | > 100 | > 100 | > 40 | – | > 100 | > 100 | > 100 |
| Oc1cc(-c2ccccn2)nc2cc(F)ccc12 | 43.7 | > 100 | 44.7 | 52.5 | – | > 40 | 29.5 | > 100 | – | > 100 |
| COc1ccc(-c2cc(O)c3cc(Cl)ccc3n2)cc1 | > 100 | > 100 | > 100 | > 100 | > 100 | > 40 | > 100 | > 100 | > 100 | > 100 |
| CN(C)c1cccc(-c2cc(O)c3ccccc3n2)c1 | 58.9 | 29.5 | – | 45.7 | 41.7 | 1.5 | 75.9 | 34.7 | 35.5 | 28.2 |
| Oc1c2c(nc3cc4c(cc13)OCO4)-c1ccccc1CCC2 | 28.2 | > 100 | > 100 | – | > 100 | > 40 | > 100 | – | > 100 | 19.5 |
| COc1cc2nc(-c3ccccc3)cc(O)c2cc1OC | – | – | – | – | – | 18 | – | – | – | – |

Now from value to molecule, other results behind:

| GI50 [3] [µM] | GI50 [4] [µM] | GI50 [6] [µM] | GI50 [7] [µM] | GI50 [8] [µM] | IC50 [9] [µM] | Compound | GI50 [1] [µM] | GI50 [2] [µM] | GI50 [5] [µM] | GI50 [10] [µM] |
| --- | --- | --- | --- | --- | --- | --- | --- | --- | --- | --- |
| > 100 | > 100 | > 100 | > 100 | > 100 | > 40 | CN(C)c1ccc(-c2cc(O)c3cc4c(cc3n2)OCO4)cc1 | > 100 | > 100 | > 100 | > 100 |
| > 100 | > 100 | > 100 | > 100 | > 100 | 1.3 | Oc1cc(-c2c[nH]c3ccccc23)nc2cc3c(cc12)OCO3 | > 100 | > 100 | > 100 | 91.2 |
| > 100 | > 100 | > 100 | – | > 100 | > 40 | COc1ccc(-c2cc(O)c3cc(OC)c(OC)cc3n2)cc1OC | > 100 | – | 67.6 | > 100 |
| > 100 | > 100 | > 100 | 29.5 | > 100 | > 40 | COc1ccc(-c2cc(O)c3cc4c(cc3n2)OCO4)c(OC)c1OC | > 100 | > 100 | > 100 | 75.9 |
| 39.8 | 24.5 | 13.5 | 37.2 | 42.7 | 23 | Oc1cc(-c2ccco2)nc2cc3c(cc12)OCO3 | 41.7 | 21.4 | 25.1 | 28.2 |
| 29.5 | 35.5 | 7.76 | 32.4 | 30.9 | 18 | Oc1cc(-c2ccc[nH]2)nc2cc3c(cc12)OCO3 | > 100 | 20 | 15.8 | 33.9 |
| 0.372 | 0.316 | 0.195 | 0.407 | 0.245 | 0.7 | CN(C)c1cccc(-c2cc(O)c3cc4c(cc3n2)OCO4)c1 | 0.741 | 0.229 | 0.24 | 0.24 |
| 58.9 | 21.4 | – | 55 | 33.9 | 4.3 | COc1cccc(-c2cc(O)c3cc(OC)c(OC)cc3n2)c1 | 50.1 | 24 | 33.1 | 40.7 |
| 3.24 | 6.31 | 4.07 | 5.01 | 4.9 | 5.5 | COc1ccc(OC)c(-c2cc(O)c3cc4c(cc3n2)OCO4)c1 | 8.32 | 6.92 | 3.02 | 6.61 |
| 5.01 | 1.86 | – | 4.79 | < 1 | 15 | COc1cc2nc(-c3cccc(N(C)C)c3)cc(O)c2cc1OC | 5.25 | 2 | 2.24 | 1.95 |
| 0.0708 | 0.316 | 0.0355 | – | 0.162 | 0.63 | Oc1cc(-c2ccccc2)nc2cc3c(cc12)OCO3 | 0.0302 | 0.182 | 0.112 | 0.191 |
| 4.79 | 6.31 | 1.35 | 6.76 | 7.94 | 2.2 | Oc1cc(-c2cccs2)nc2cc3c(cc12)OCO3 | 11.2 | 14.5 | 2.04 | 3.24 |
| 38 | 39.8 | 25.1 | 24 | 19.5 | 1.1 | Oc1cc(-c2ccc3c(c2)OCO3)nc2cc3c(cc12)OCO3 | 46.8 | 26.3 | 20.9 | 29.5 |
| > 100 | > 100 | > 100 | > 100 | > 100 | > 40 | COc1ccc(-c2cc(O)c3cc4c(cc3n2)OCO4)cc1OC | > 100 | > 100 | > 100 | > 100 |
| 74.1 | > 100 | 93.3 | 83.2 | > 100 | > 40 | COc1cc(-c2cc(O)c3cc4c(cc3n2)OCO4)cc(OC)c1OC | 32.4 | > 100 | 21.9 | 32.4 |
| 40.7 | 93.3 | 42.7 | 26.3 | > 100 | > 40 | COc1ccc(-c2cc(O)c3cc4c(cc3n2)OCO4)c(OC)c1 | 63.1 | 42.7 | 45.7 | 45.7 |
